These results are taken from patent US9682993B2, “Anticancer compounds” (ST. JUDE CHILDREN'S RESEARCH HOSPITAL, priority 2012, dated 2017).

For experiment [1], the system named is AML blast cells with wild-type or mutant S34F U2AF1, CD34+ cells. In words: Replication by 5-ethynyl-2′-deoxyuridine incorporation. Type of experiment: cell-based. Conditions: concentration dependent; mutant vs wild-type U2AF1 AML blasts vs CD34+ cells. As for the experimental part: Replication was determined from incorporation of 5-ethynyl-2′-deoxyuridine using standard assay techniques.

In experiment [2] the test system is MDM2 alternative splicing in Rh18 cells. Kind of experiment: In vitro alternative splicing assay (MDM2, RT-PCR). Type of experiment: cell-based. Conditions: Rh18, 8 h, PCR (FIG. 9). As for the experimental part: Briefly, following an 8 h exposure of exponentially growing cells to drug, total RNA was isolated using TRIzol reagent (Invitrogen, Carlsbad, Calif.). Total RNA (1 μg) was used to convert the mRNA to cDNA by using random primers, Oligo(dT)16 and Omniscript Reverse Transcription Kit (Qiagen, Germantown, Md.). PCR analyses were performed using specific oligonucleotides (see Table I) and standard amplification protocols. PCR products were separated by agarose gel electrophoresis, visualized by ethidium bromide staining on an UV transilluminator, and recorded. PCR band sizes were calculated by comparing them to the standard EZ Load 100-bp PCR Molecular Ruler (BioRad Laboratories, Hercules, Calif.).

The test system of the next experiment is cell lines investigated. In words: Drug combination assays, cell line not stated. It counts as cell-based. As for the experimental part:
(§1) Preliminary cytotoxic screenings for each drug used in drug combination assays were performed to determine their cytotoxic dose range. […] Eight concentrations were established by 1:3 serial dilutions of the single drugs and their combinations with the splicing modulators. All drug concentrations were evaluated in triplicate in 96-well cell culture plates. Assays of individual drugs and drug combinations were run on the same tissue culture plate. Cell viability was determined using the CellTiter-Glo reagent.
(§2) Luminescence data obtained from the cell viability determinations were formatted per the requirements of the analytical software (viability data range: >0 and <1). The formatted data were analyzed with the software CalcuSyn 2.1 (Biosoft, Cambridge, UK), which provides quantitative CI values for the drug interaction analyses (see ranges in Supplementary Table S2).

Experiment [3] relates to c-kit positive bone marrow cells transduced with GFP, WT-U2AF1 or MUT-U2AF1 (S34F). Kind of experiment: GFP expression and apoptosis in U2AF1 transduced cells. Type of experiment: cell-based, C57BL/6 mice. As for the experimental part:
Bone marrow was collected from C57BL/6 mice and pooled together in a single solution, and then c-kit positive cells were selected. The c-kit positive cells were cultured with media enriched with stem cell factor (SCF), Flt-3, IL3, and thromboprotein (TPO), and other cytokines. Murine stem cell virus (MSCV) was used to transduce these cells with one of three constructs as indicated in the figure: GFP (control), U2AF1-IRES-GFP (indicated as WT-U2AF1 in the figure), or U2AF1^S34F-IRES-GFP (indicated as MUT-U2AF1 in the figure). The transduced cells carry a construct that expresses GFP and as indicated wild-type or mutant U2AF1. The control cells construct expresses only GFP. […] The assay data are expressed as the percentage of annexin V stained cells among the GFP positive cells. […] These cells show an increased tendency to apoptosis (i.e. increased expression of annexin V) in the GFP positive cells.

A further experiment deals with SK-MEL-2. Kind of experiment: Drug combination assay, SK-MEL-2. It counts as cell-based. As for the experimental part:
as §1, §2

The test system of the next experiment is JeKo-1. In words: Drug combination assay, JeKo-1. Type of experiment: cell-based. The settings on record: inhibitor + compound 19. As for the experimental part:
as §1, with “reagent. Drug interactions, in terms of synergism, additive effect, or antagonism, were based on the drugs' Combination Index (CI) (Chou et al., Adv. Enzyme Regul. 1984, 22, 27).” for “reagent.”
as §2, with “S2). […] Therefore, in these two cases the drug interaction was evaluated by comparing the IC50 value of Sudemycin with that of the IC50 values resulting from the serial dilutions of the splicing modulator combined with a constant dose of the non-toxic drug.” for “S2).”

The subject of another experiment is HeLa. Kind of experiment: Drug combination assay, HeLa. It counts as cell-based. Conditions: HeLa; inhibitor + compound 19. As for the experimental part: as §1, with “reagent. Drug interactions, in terms of synergism, additive effect, or antagonism, were based on the drugs' Combination Index (CI) (Chou et al., Adv. Enzyme Regul. 1984, 22, 27).” for “reagent.”
as §2, with “S2). […] Therefore, in these two cases the drug interaction was evaluated by comparing the IC50 value of Sudemycin with that of the IC50 values resulting from the serial dilutions of the splicing modulator combined with a constant dose of the non-toxic drug.” for “S2).”

Another experiment concerns PC-3. In words: Drug combination assay, PC-3. Type of experiment: cell-based. The settings on record: inhibitor + compound 19. As for the experimental part:
as §1, with “reagent. Drug interactions, in terms of synergism, additive effect, or antagonism, were based on the drugs' Combination Index (CI) (Chou et al., Adv. Enzyme Regul. 1984, 22, 27).” for “reagent.”
as §2, with “S2). […] Therefore, in these two cases the drug interaction was evaluated by comparing the IC50 value of Sudemycin with that of the IC50 values resulting from the serial dilutions of the splicing modulator combined with a constant dose of the non-toxic drug.” for “S2).”

For the next experiment, the system named is WiDr. In words: Drug combination assay, WiDr. Type of experiment: cell-based. The settings on record: inhibitor + compound 19. As for the experimental part:
as §1, with “reagent. Drug interactions, in terms of synergism, additive effect, or antagonism, were based on the drugs' Combination Index (CI) (Chou et al., Adv. Enzyme Regul. 1984, 22, 27).” for “reagent.”
as §2, with “S2). […] Therefore, in these two cases the drug interaction was evaluated by comparing the IC50 value of Sudemycin with that of the IC50 values resulting from the serial dilutions of the splicing modulator combined with a constant dose of the non-toxic drug.” for “S2).”

The test system of another experiment is Sk-N-AS. Kind of experiment: Drug combination assay, Sk-N-AS neuroblastoma. Type of experiment: cell-based. The settings on record: Sk-N-AS; inhibitor + compound 19. As for the experimental part: as §1, §2

Each structure is given as a SMILES string.

As to `CC(/C=C/[C@@H]1C[C@]2(CO2)CC(C)(C)O1)=C\C[C@H]1CC[C@@H](NC(=O)/C=C\[C@H](C)OC(=O)N(C)C)CC1` [compound 19, (S,Z)-5-(((1R,4R)-4-((2E,4E)-5-((3R,5S)-7,7-Methyl-1,6-Dioxaspiro[2.5]Octan-5-Yl)-3-Methylpenta-2,4-Dien-1-Yl)Cyclohexyl)Amino)-5-Oxopent-3-En-2-Yl Dimethylcarbamate], in experiment [1], the effect on replication entry is recorded as “cells expressing mutant U2AF1 are extremely sensitive”. Further, the “alternative MDM2 splicing” value in [2] is given as “induction of alternative MDM2 splicing”. The “synergy with PI3K/mTOR inhibition” value with cell lines investigated (all cell lines investigated) is listed as “synergy is also seen”. Moreover, the “apoptosis (annexin V stained cells among GFP positive cells)” value in [3] (75 or 100 nM) is given as “cells expressing mutant U2AF1 the most sensitive”. The “effect on expression of GFP from the splicing construct” value in experiment [3] (concentration dependent, GFP vs WT-U2AF1 vs MUT-U2AF1 cells) was “greater sensitivity realized in the mutant U2AF1 cells”.
Consider `CO[C@H]1C[C@@H]2CC[C@@H](C)[C@@](O)(O2)C(=O)C(=O)N2CCCC[C@H]2C(=O)O[C@H]([C@H](C)C[C@@H]2CC[C@@H](OC(=O)C(C)(CO)CO)[C@H](OC)C2)CC(=O)[C@H](C)/C=C(\C)[C@@H](O)[C@@H](OC)C(=O)[C@H](C)C[C@H](C)/C=C/C=C/C=C/1C` [Temsirolimus], for which the “CI in SK-MEL-2 with compound 19” value in the experiment on SK-MEL-2 (Combination Index at ED50, CalcuSyn 2.1, listed drug + compound 19) is listed as 0.68. Also, the “CI of 19 + inhibitor” value is 0.68 with SK-MEL-2 (SK-MEL-2, inhibitor + compound 19); 0.37 with JeKo-1; 0.35 in the experiment with HeLa; 0.57 with PC-3; 0.44 in the experiment with WiDr; 0.58 in the experiment on Sk-N-AS. In addition, the “Interaction Type” value in the experiment on SK-MEL-2 (listed drug combined with compound 19, Ineffective = drug IC50 much higher than 1 μM) is “Synergism (0.3-0.7)”. The “drug interaction with compound 20” value in the experiment on cell lines investigated is “demonstrated synergy”.
